Reference: patent publication US20180289655A1, “Methods and Compositions for the Intravenous Administration of Fumarates for the Treatment of Neurological Diseases” (Biogen MA Inc., priority 2015, published 2018)
“And” between values parts separate entries of the source, which are not always exact repeats. Equal entries are not always repeated. “Also recorded” adds a separate entry of the source. Structures can show the parent of a compound that is named as a salt. Values belong to the compound of their own block, whether it stands above or below them.

Legend:
[1] = (^14C)DMF distribution viewed in sagittal section (QWBA); assay type: in vivo, mice; details: 10 and 60 minutes
[2] = PET/MR imaging of (^11C)DMF tissue distribution after oral or intravenous administration; assay type: in vivo, CD1 mice
Description: To determine the localization and retention of DMF administered by different routes in vivo, mice were administered isotopically labeled DMF either orally or through tail vein injections. […] Acquired images from PET experiments were analyzed using inviCRO software. […] All animals were anaesthetized during image acquisition. […] The imaging data from the three groups of treated animals were quantified according to tissue type using inviCRO image analysis software. Regions of Interest (ROIs) for the brain, heart, liver, kidneys, scapular muscle, and whole body were defined by fitting ellipsoids of fixed volume to the regions. The scapular muscle ROI was hand-drawn and is not representative of all mouse muscle, but is composed of only a small region of its respective ROI.

Gclc = test: qRT-PCR transcript fold-change in tissues after DMF or MMF dosing; assay type: in vivo, C57BL/6 mice; details: MMF IV 30 mpk, Study 2
Description: (§1) For RNA preparation, frozen tissues were placed in 2 mL RNAse-free 96-well blocks with 1.5 mL QIAzol Lysis Reagent (QIAgen) and a 3.2 mm stainless steel bead (BioSpec Products, Bartlesville, Okla.). Tissues were disrupted for four cycles of 45 seconds in a Mini-Beadbeater (Biospec Products). RNA was extracted with chloroform and the aqueous phase was mixed with an equal volume of 70% ethanol. Extracted RNA was applied to RNeasy 96 plates and purified by the spin method according to the manufacturer's protocol (RNeasy 96 Universal Tissue Protocol, QIAgen, Hilden Germany).
(§2) Samples were reverse-transcribed into cDNA according to the manufacturer protocols using the High Capacity cDNA Reverse Transcription Kit (Life Technologies, Carlsbad, Calif.) and analyzed by qRT-PCR. Mouse target gene primers and 6-FAM™ dye-labeled TaqMan® MGB™ probes (Life Technologies) were used. Reactions containing 100 ng of cDNA, 900 nM of each primer, and 250 nM TaqMan probes were cycled on a QuantStudio 12 k-flex system (Life Technologies) once for 10 minutes at 95° C., followed by 40 cycles of 95° C. for 10 seconds and 60° C. for 1 minute. All samples were measured in triplicate with Gapdh as a normalizing gene. Taqman primer/probe sets from Life Technologies included: Akr1b8 (Mm00484314_m1); Gapdh (Mm03302249_g1); Gclc (Mm00802655_m1); Hmox1 (Mm00516005_m1); Nqo1 (Mm01253561_m1); and Osgin1 (Mm00660947_m1). Comparative CT method was used to calculate fold changes and samples were normalized relative to time-matched vehicle control.
(§3) At the 10-minute time point, 4 animals from each group were sacrificed, with plasma and tissues (brain, jejunum and kidney) collected to determine MMF exposure. Two hours after dosing, the remaining 4 animals were sacrificed, and plasma and tissues were collected. Tissue samples from the 2-hour time point were divided, with half of each sample used for MMF exposure analysis, and half for RNA extraction and qRT-PCR to evaluate the expression of Nrf2 target genes.
(§4) Ten minutes after dosing, 4 animals from each group were sacrificed, and plasma and tissues (brain, kidney, jejunum and spleen) were collected to quantify MMF exposure levels, as well as whole blood to perform CBC. Two hours post-dose, another 4 animals from each group were sacrificed, and plasma, whole blood, and tissues were collected. Tissue samples from the 2-hour time point were split, with half of each sample used for MMF exposure analysis, and half for RNA extraction/qRT-PCR to evaluate the expression of Nrf2 target genes. Six hours after dosing, the last 4 animals from each group were sacrificed, and whole blood and tissues were collected.
(§5) Table 7 is a summary table of fold changes, relative to time-matched vehicle controls, for indicated genes in indicated tissues. Values indicate the mean fold-change±the standard deviation (n=4). Changes that were significant from vehicle are indicated in bold (one way ANOVA with Tukey's multiple comparison test).
(§6) A CBC with differential panel was performed at 10 minutes post-last dose via facial vein bleeding, and at 2 hours after the last dose, pharmacodynamic Nrf2 transcriptional responses were analyzed in tissues from the same animals. Histopathology was also performed on regions of the tail in a pilot toxicology study.

Hmox1 = test: as above; assay type: in vivo, C57BL/6 mice; details: MMF IV 30 mpk, Study 2
Description: as §1, §2, §3, §4, §5, §6

Akr1b8 = test: as above; assay type: in vivo, C57BL/6 mice; details: MMF IV 30 mpk, Study 2
Description: as §1, §2, §3, §4, §5, §6

blood cell populations = test: Complete blood count (CBC) with differential after IV dosing; assay type: in vivo, C57BL/6 mice; details: Study 2, single IV dose DMF 30 mg/kg or MMF 27.08 mg/kg
Description: Whole blood samples (250 μL) were collected in EDTA tubes at indicated time points after dosing, and were maintained at 4° C. until analysis for CBC with differential at Charles River Laboratories (analyzed within 24-36 hours from time of collection).
Statistical analyses on blood cell fractions were not completed due to the overall variability and low number of replicates for the samples in this pilot study.
as §6

Osgin1 = test: qRT-PCR transcript fold-change in tissues after DMF or MMF dosing; assay type: in vivo, C57BL/6 mice; details: MMF IV 30 mpk, Study 2; for Osgin1 fold change vs vehicle, jejunum / Osgin1 fold change vs vehicle, kidney: 30 mg/kg
Description: as §1
as §2, with “control. […]” for “control.”
as §4
as §5, with “test). […]” for “test).”

Nqo1 = test: as above; assay type: in vivo, C57BL/6 mice; details: MMF IV 30 mpk, Study 2; for Nqo1 fold change vs vehicle, jejunum / Nqo1 fold change vs vehicle, kidney: 30 mg/kg
Description: as §1
as §2, with “control. […]” for “control.”
as §4
as §5, with “test). […]” for “test).”

[3] = MMF exposure in plasma and tissues after DMF PO/IV or MMF IV (LC-MS/MS); assay type: in vivo, C57BL/6 mice
Description: Aliquots (25 μL) of either plasma or tissue homogenate samples were extracted by protein precipitation with acetonitrile containing 4C13-MMF as the internal standard. For tissue samples, aliquots of homogenization solution (plasma with 12.5 mg/mL of NaF) were added to the tissue samples. The tissue samples were homogenized at 6.5 m/s for 60 seconds on a Fast Prep Tissue Homogenizer prior to protein precipitation. Concentrations of MMF in plasma, brain, jejunum and kidney samples were determined using qualified LC-MS/MS assays in the respective matrices. Data collections and integrations were accomplished using an API 5500 triple quadrupole mass spectrometer with a turbo ion spray interface (AB Sciex, Foster City, Calif.), and Analyst software (version 1.6.1). The peak area ratios of MMF relative to its internal standard were used to construct a standard curve using a quadratic regression with a 1/x^2 weighting. The lower limits of quantitation (LLOQ) were 1 ng/mL for the three tissue assays and 10 ng/mL for the plasma assay, respectively. The performances of the assays were monitored by the precision and accuracy of the standards and quality control samples.
MMF exposure levels were evaluated 10 minutes and 2 hours after dosing, while pharmacodynamic transcriptional responses were analyzed at 2 hours post-dose.
as §3
MMF exposure levels were evaluated 10 minutes and 2 hours after dosing, while transcriptional pharmacodynamic responses were analyzed at 2 and 6 hours post-dose. A complete blood count (CBC) with differential panel was performed at 10 minutes, 2 hours, and 6 hours post-dose.
as §4

- (^14C) signal in sagittal section ([1]; PO 0.5 mg/kg): had less signal in the brain
Compound: COC(=O)/[14CH]=[14CH]/C(=O)OC [(^14C)DMF, [2,3-^14C] DMF]
- (^14C) signal in sagittal section ([1]; IV 0.5 mg/kg): displayed signal in the kidneys and brain

Compound: (^11C) dimethyl fumarate [(^11C)DMF]
- PET signal distribution in tissues ([2]; IV 0.5 mg/kg, imaged up to 90 minutes, 0.5 mg/kg): positive signal throughout various tissues of the body including the brain and heart; also recorded: signal was higher in most tissues; also recorded: localized in numerous tissues, including the brain, as early as 30 seconds after administration
- PET signal in brain regions ([2]; IV 0.5 mg/kg, 0.5 mg/kg): high levels of signal in all regions of the brain throughout the observation period; also recorded: all emitted a strong signal as compared to olfactory regions
- PET signal in brain regions ([2]; PO 0.5 mg/kg or 200 mg/kg): almost no signal was detected in any region; also recorded: significantly lower levels of signal throughout the brain

- Kp at 10 min ([3]; C57BL/6, mouse, brain, Study 2, MMF IV 27.08 mg/kg, 10 minutes, read-out: Brain to plasma MMF ratio (tissue [MMF]/plasma [MMF]*100)): 7.2 ± 3
- concentration at 10 min ([3]; C57BL/6, mouse, plasma, Study 2, MMF IV 27.08 mg/kg, 10 minutes, n=4, read-out: MMF level in plasma): 13000 ng/mL and 100 µM
- Difference in brain MMF levels, animals receiving MMF compared to DMF via IV dosing ([3]; Study 2, 10 minutes, not significant): 31%
Compound: COC(=O)/C=C/C(=O)O [MMF, monomethyl fumarate]
- Gclc fold change vs vehicle, brain (Gclc; 2 hr): 1.0 ± 0.0 fold
- Gclc fold change vs vehicle, jejunum (Gclc; 2 hr): 1.2 ± 0.3 fold
- Gclc fold change vs vehicle, kidney (Gclc; 2 hr, 30 mg/kg): 1.9±0.7 fold
- Gclc fold change vs vehicle, brain (Gclc; 6 hr): 1.0 ± 0.1 fold
- Gclc fold change vs vehicle, jejunum (Gclc; 6 hr, 30 mg/kg): 1.5±0.1 fold
- Gclc fold change vs vehicle, kidney (Gclc; 6 hr, 30 mg/kg): 2.3±0.6 fold
- Hmox1 fold change vs vehicle, brain (Hmox1; 2 hr): 1.0 ± 0.1 fold
- Hmox1 fold change vs vehicle, jejunum (Hmox1; 2 hr): 0.9 ± 0.1 fold
- Hmox1 fold change vs vehicle, kidney (Hmox1; 2 hr): 1.6 ± 0.3 fold
- Hmox1 fold change vs vehicle, brain (Hmox1; 6 hr): 1.0 ± 0.0 fold
- Hmox1 fold change vs vehicle, jejunum (Hmox1; 6 hr): 1.1 ± 0.1 fold
- Hmox1 fold change vs vehicle, kidney (Hmox1; 6 hr): 3.3 ± 0.8 fold
- Akr1b8 fold change vs vehicle, brain (Akr1b8; 2 hr): 1.0 ± 0.2 fold
- Akr1b8 fold change vs vehicle, kidney (Akr1b8; 2 hr): 1.2 ± 0.1 fold
- Akr1b8 fold change vs vehicle, jejunum (Akr1b8; 2 hr, 30 mg/kg): 2.4±0.7 fold
- Akr1b8 fold change vs vehicle, brain (Akr1b8; 6 hr): 1.0 ± 0.1 fold
- Akr1b8 fold change vs vehicle, jejunum (Akr1b8; 6 hr): 2.9 ± 1.2 fold
- Akr1b8 fold change vs vehicle, kidney (Akr1b8; 6 hr, 30 mg/kg): 1.5±0.1 fold
- Reduction in white blood cell counts (neutrophils, lymphocytes, monocytes, eosinophils, basophils) (blood cell populations; 2-hour time point): did not specifically coincide with DMF or MMF treatment
- Effect on red blood cells, hemoglobin, hematocrit, mean corpuscular volume, platelets (blood cell populations; 10 minutes, 2 and 6 hours): no effect on red blood cells, hemoglobin, hematocrit, mean corpuscular volume, or platelets
- Osgin1 fold change vs vehicle, brain (Osgin1; 2 hr): 1.9 ± 0.3 fold
- Osgin1 fold change vs vehicle, jejunum (Osgin1; 2 hr): 1.6±0.1 fold
- Osgin1 fold change vs vehicle, kidney (Osgin1; 2 hr): 2.4±0.8 fold
- Osgin1 fold change vs vehicle, brain (Osgin1; 6 hr): 1.1 ± 0.1 fold
- Osgin1 fold change vs vehicle, jejunum (Osgin1; 6 hr): 1.2±0.1 fold
- Osgin1 fold change vs vehicle, kidney (Osgin1; 6 hr): 1.4±0.0 fold
- Nqo1 fold change vs vehicle, brain (Nqo1; 2 hr): 1.1 ± 0.1 fold
- Nqo1 fold change vs vehicle, jejunum (Nqo1; 2 hr): 1.5±0.2 fold
- Nqo1 fold change vs vehicle, kidney (Nqo1; 2 hr): 1.6±0.4 fold
- Nqo1 fold change vs vehicle, brain (Nqo1; 6 hr): 1.2 ± 0.1 fold
- Nqo1 fold change vs vehicle, jejunum (Nqo1; 6 hr): 1.7±0.1 fold
- Nqo1 fold change vs vehicle, kidney (Nqo1; 6 hr): 2.3±0.3 fold
- MMF level in plasma or any tissues ([3]; Study 2, 2 hours, DMF 30 mg/kg or MMF 27.08 mg/kg IV): no detectable MMF in plasma or in any tissues
- MMF levels in kidney, jejunum and spleen, DMF versus MMF ([3]; Study 2, IV, 10 minutes): no significant differences were noted in MMF levels
- Tissue penetration ratios in kidney, jejunum or spleen, DMF versus MMF ([3]; Study 2, IV, 10 minutes): no significant differences in tissue penetration ratios
